# Key:
# SPCA-1 cells [1] = assay: Intracellular ROS (DCFH-DA), SPCA-1 (Example 22); format: cell-based, human
# Description: The large amount of reactive oxygen species (ROS) induced by X-ray and the sustained oxidative stress reaction may cause DNA damage. Superoxide dismutase (SOD) and catalase (CAT) exert antioxidant effects, and the lipid oxidation product malondialdehyde (MDA) and ROS can reflect the oxidative stress level in vivo. The intracellular ROS level was detected using the fluorescent probe DCFH-DA. […] The supernatant of BEAS-2B cells was extracted and subjected to an MDA assay and an activity assay for CAT and SOD.
# C57BL/6 male mice [2] = assay: Therapeutic JAC4 administration, total body X-ray irradiation, small intestine villus length (Example 7); format: in vivo
# Description: C57BL/6 male mice (24.8±1.6 g in body weight) aged 10 weeks were divided into 4 groups. The mice were subjected to total body X-ray irradiation (6 Gy) before JAC4 (100 mg/kg) or an equal volume of vehicle (polyethylene glycol:ethanol:physiological saline=47.5:7.5:50, v/v/v) was orally administered to the mice once daily for 7 consecutive days. The small intestine tissues were collected for HE staining and inspection, and the small intestine villus length was measured in all groups and statistically analyzed. The specific procedures are as follows: 3 mice were randomly selected from each group for statistical analysis of their small intestine tissue HE staining images, and for each mouse, 6 fields of view were randomly selected for inspection (*** p<0.001).
# SPCA-1 cells [3] = assay: Plate colony formation, SPCA-1 (Example 22); format: cell-based, human
# Description: The cell proliferation capacity was determined by a plate colony formation experiment, with the following specific procedures.
# 1. SPCA-1 and BEAS-2B cells (or SPCA-1 and BEAS-2B cells transfected with JWA-knockdown plasmids) in the exponential growth phase were plated in 6-well plates at a specific amount. The number of plated cells is as follows
# 2. After the cells adhered to the container wall, the cells were treated (or not treated) with […] JAC4 and treated with X-ray of 0, 2, 4, or 6 Gy. The medium was replaced with a fresh medium containing JAC4 at the corresponding concentration once every 2 days (or the cells were treated with X-ray of 0, 2, 4, or 6 Gy after adhesion, and the medium was replaced with a fresh medium once every 2 days).
# 3. After the cells were cultured for 10-14 days, colonies were visually observed. The culture medium was discarded, and the cells were fixed with methanol for 10-20 min, stained with crystal violet for 10 min, slowly washed with flowing clear water thrice, photographed, and counted for colonies containing>50 cells.
# 4. The colony forming efficiency (CFE)=(number of colonies formed/number of seeded cells) 100% was calculated, and the cell survival fraction (SF)=(colony forming efficiency of treatment group/colony forming efficiency of 0 Gy group)×100% was calculated from the colony forming efficiency.
# C57BL/6 male mice [4] = assay: Lengths of small intestine and colon, acute radiation enteritis (Example 11); format: in vivo; details: JAC4 100 mg/kg oral + abdominal X-ray 12 Gy
# Description: C57BL/6 male mice (27.6±1.9 g in body weight) aged 10 weeks were divided into 3 groups of 6 mice each. JAC4 (100 mg/kg) or an equal volume of vehicle (polyethylene glycol:ethanol:physiological saline=40:7.5:52.5, v/v/v) was orally administered to the mice once daily for 7 consecutive days. After that, the mice were subjected to abdominal X-ray irradiation (12 Gy) and JAC4 or vehicle treatment was continued. After 4 days, blood samples and small intestine were collected.
# The small intestine epithelial mucosal barrier is located at the interface between luminal micro-organisms and the mucosal immune system, and can maintain the intestinal mucosal barrier homeostasis. The integrity of the small intestine mucosal barrier is determined by a number of factors, including the tight junction proteins, proteins in other cell junction complexes, and the like. JAC4 has a protective effect on the small intestine mucosal barrier. The disruption of the small intestine mucosal barrier may lead to radiation enteritis and a reduction in the length of small intestine due to the inflammatory edema.
# BEAS-2B cells = assay: γ-H2AX foci and Western blot (DSBs), BEAS-2B (Example 22); format: cell-based, human
# Description: To investigate the effect of JAC4 in combination with X-ray on DSBs in SPCA-1 and BEAS-2B cells, SPCA-1 and BEAS-2B cells were pretreated with 10 μM JAC4 for 24 h and 4 Gy X-ray for 2 h, and then subjected to γ-H2AX fluorescent labeling and Western immunoblot (see Example 4 for detailed procedures).
# SPCA-1 cells [5] = assay: Apoptosis (Hoechst 33342) and mitochondrial membrane potential (JC-1), SPCA-1 (Example 22); format: cell-based, human
# Description: Severe DSBs may cause apoptosis. SPCA-1 and BEAS-2B cells were plated and cultured for 24 h before they were treated with 10 μM JAC4 for 24 h and 4 Gy X-ray for 24 h. The cells were stained with Hoechst 33342 (see Hoechst staining for apoptosis detection in Example 13) to evaluate the effect of JAC4 in combination with radiation on apoptosis. […] The decrease in mitochondrial membrane potential (JC-1) is a marker event in the early stage of apoptosis. The mitochondrial membrane potential was measured using fluorescent probe JC-1. The red fluorescence indicates a high mitochondrial membrane potential leading to JC-1 aggregate formation, and the green fluorescence indicates the mitochondrial membrane potential depolarization. The fluorescence ratio of red to green reflects the mitochondrial membrane potential and the number of early apoptotic cells.
# [6] = SPCA-1, JAC4 in combination with X-ray
structure (smiles),measurement,setting,value
c1ccc(CSc2nnc(C3COc4ccccc4O3)o2)nc1 (stereo not drawn) [JAC4],ROS level,SPCA-1 cells [1],no significant effect
same,small intestine villus length,"C57BL/6 male mice [2]; TBI 6 Gy, then JAC4 100 mg/kg oral once daily 7 days",263.11±37.99 μm
same,small intestine villus length,"C57BL/6 male mice [2]; non-radiation, JAC4 100 mg/kg oral 7 days",306.71±24.22 μm
same,cell survival (radiosensitization curve),"SPCA-1 cells [3]; SPCA-1, 10 μM JAC4 + X-ray vs X-ray monotherapy",significantly reduced
same,number of colonies formed,SPCA-1 cells [3]; [6],decreased
same,small intestine length,C57BL/6 male mice [4]; 4 days after,34.83±1.44 cm
same,length of the colon,C57BL/6 male mice [4]; among the groups,no statistically significant differences
same,formation of γ-H2AX foci,BEAS-2B cells; 10 μM JAC4 24 h + 4 Gy X-ray 2 h vs X-ray treatment group,significantly reduced
same,JWA expression level (Western blot),BEAS-2B cells; 10 μM JAC4 + 4 Gy X-ray,increased
same,γ-H2AX protein expression level (Western blot),BEAS-2B cells; 10 μM JAC4 + 4 Gy X-ray,decreased
same,apoptosis (Hoechst 33342),"SPCA-1 cells [5]; SPCA-1, 10 μM JAC4 24 h + 4 Gy X-ray 24 h",increased the pro-apoptotic effect of X-ray
same,mitochondrial membrane potential (JC-1),SPCA-1 cells [5]; [6],aggravated the decrease in mitochondrial membrane potential

# — patent US20250345318A1, “COMPOUND AND USE THEREOF IN PREVENTING OR TREATING RADIATION DAMAGE” (SIMCERE PHARMACEUTICAL CO., LTD., priority 2022, published 2025)
